Laboratory results reported in patent US12528826B2, “[1,4]oxazepino[2,3-c]quinolinone derivatives as BCL6 inhibitors” (Cancer Research Technology Limited, priority 2019, dated 2026).

Target: T1, Trx-6×His-BCL6 (human BCL6 BTB domain covering amino-acid sequence 5-129) (Homo sapiens, UniProt P41182)
T1 construct: made in house
Test: HTRF assay (BCL6 / BCOR peptide)
Format: binding
Details: 1 nM Trx-6×His-BCL6, 300 nM BCOR-AF633 peptide, 2 hours incubation at room temperature; read-out: HTRF avg pIC50 (converted)
Protocol: After 2 hours incubation at room temperature the plate was read on a Pherastar FSX (BMG Labtech) plate reader equipped with 337 nm laser excitation filter, a first emission filter at 620 nm and a second emission filter at 665 nm. The % inhibition at each concentration was calculated by normalising FRET ratio to the appropriate high (DMSO with all reagents) and low (DMSO without BCL6) controls.

Row | IC50 | Structure (SMILES)
1 | 14.5 nM | Cn1c(=O)c2c(c3cc(Nc4nc(NC5CCC(F)(F)CC5)ncc4Cl)ccc31)N[C@@H](C1CC1)C(F)(F)CO2 [Example 12x24, (S)-10-((5-chloro-2-((4,4-difluorocyclohexyl)amino)pyrimidin-4-yl)amino)-2-cyclopropyl-3,3-difluoro-7-methyl-1,2,3,4-tetrahydro-[1,4]oxazepino[2,3-c]quinolin-6(7H)-one]
2 | 30.9 nM | Cn1c(=O)c2c(c3cc(Nc4cc(N5CCC(F)(F)CC5)ncc4Cl)ccc31)N[C@@H](C1CC1)C(F)(F)CO2 [Example 13b]
3 | 3.72 nM | CO[C@@H]1C[C@H](C)CN(c2ncc(Cl)c(Nc3ccc4c(c3)c3c(c(=O)n4C)OCC(F)(F)[C@H](C4CC4)N3)n2)C1 [Example 12x05, (S)-10-((5-chloro-2-((3R,5S)-3-methoxy-5-methylpiperidin-1-yl)pyrimidin-4-yl)amino)-2-cyclopropyl-3,3-difluoro-7-methyl-1,2,3,4-tetrahydro-[1,4]oxazepino[2,3-c]quinolin-6(7H)-one]
4 | 11.2 nM | COC[C@@H]1CCCN1c1ncc(Cl)c(Nc2ccc3c(c2)c2c(c(=O)n3C)OCC(F)(F)[C@H](C3CC3)N2)n1 [Example 12x45a, (S)-10-((5-chloro-2-((S)-2-(methoxymethyl)pyrrolidin-1-yl)pyrimidin-4-yl)amino)-2-cyclopropyl-3,3-difluoro-7-methyl-1,2,3,4-tetrahydro-[1,4]oxazepino[2,3-c]quinolin-6(7H)-one]
5 | 64.6 nM | CC1CCCN(c2ncc(Cl)c(Nc3ccc4c(c3)c3c(c(=O)n4C)OCC(F)(F)[C@H](C4CC4)N3)n2)CC1 (mixture of isomers) [Example 11d, (S)-10-((5-chloro-2-((R)-4-methylazepan-1-yl)pyrimidin-4-yl)amino)-2-cyclopropyl-3,3-difluoro-7-methyl-1,2,3,4-tetrahydro-[1,4]oxazepino[2,3-c]quinolin-6(7H)-one:(S)-10-((5-chloro-2-((S)-4-methylazepan-1-yl)pyrimidin-4-yl)amino)-2-cyclopropyl-3,3-difluoro-7-methyl-1,2,3,4-tetrahydro-[1,4]oxazepino[2,3-c]quinolin-6(7H)-one (1:1)]
6 | 2.95 nM | Cn1c(=O)c2c(c3cc(Nc4nc(N5C[C@@H](O)C[C@@H](F)C5)ncc4Cl)ccc31)N[C@@H](C1CC1)C(F)(F)CO2 [Example 9a-2, (S)-10-((5-chloro-2-((3R,5S)-3-fluoro-5-hydroxypiperidin-1-yl)pyrimidin-4-yl)amino)-2-cyclopropyl-3,3-difluoro-7-methyl-1,2,3,4-tetrahydro-[1,4]oxazepino[2,3-c]quinolin-6(7H)-one]
7 | 2.14 nM | Cn1c(=O)c2c(c3cc(Nc4nc(N5CC[C@H]5CO)ncc4Cl)ccc31)N[C@@H](C1CC1)C(F)(F)CO2 [Example 12x33a, (S)-10-((5-chloro-2-((S)-2-(hydroxymethyl)azetidin-1-yl)pyrimidin-4-yl)amino)-2-cyclopropyl-3,3-difluoro-7-methyl-1,2,3,4-tetrahydro-[1,4]oxazepino[2,3-c]quinolin-6(7H)-one]
8 | 10.2 nM | Cn1c(=O)c2c(c3cc(Nc4nc(N5CC(F)(F)C5)ncc4Cl)ccc31)N[C@@H](C1CC1)C(F)(F)CO2 [Example 1a, (S)-10-((5-chloro-2-(3,3-difluoroazetidin-1-yl)pyrimidin-4-yl)amino)-2-cyclopropyl-3,3-difluoro-7-methyl-1,2,3,4-tetrahydro-[1,4]oxazepino[2,3-c]quinolin-6(7H)-one]
9 | 20.9 nM | Cn1c(=O)c2c(c3cc(Nc4nc(N5CC[C@@H](F)[C@@H](F)C5)ncc4F)ccc31)N[C@@H](C1CC1)C(F)(F)CO2 (racemic) [Example 10d, (S)-10-((5-fluoro-2-((3S,4R)-3,4-difluoropiperidin-1-yl)pyrimidin-4-yl)amino)-2-cyclopropyl-3,3-difluoro-7-methyl-1,2,3,4-tetrahydro-[1,4]oxazepino[2,3-c]quinolin-6(7H)-one; (S)-10-((5-fluoro-2-((3R,4S)-3,4-difluoropiperidin-1-yl)pyrimidin-4-yl)amino)-2-cyclopropyl-3,3-difluoro-7-methyl-1,2,3,4-tetrahydro-[1,4]oxazepino[2,3-c]quinolin-6(7H)-one]
